Assay results reported in ChEMBL document CHEMBL1130720, “Design, synthesis, and conformational analysis of a novel series of HIV protease inhibitors” (Bioorg Med Chem Lett, 1998).

These compounds were tested against T1, Human immunodeficiency virus type 1 protease (Human immunodeficiency virus 1, UniProt Q72874) (assay: Binding affinity against HIV-1 protease was determined).

| SMILES | Ki |
| --- | --- |
| COc1ccc(S(=O)(=O)N(CC2CCCC2)C[C@@H](O)CN(CCc2ccccc2)C(=O)Nc2ccccc2)cc1 | > 20000 nM |
| CNC(=O)N(CCc1ccccc1)C[C@H](O)CN(CC1CCCC1)S(=O)(=O)c1ccc(OC)cc1 | 3400 nM |
| COc1ccc(S(=O)(=O)N(CC2CCCC2)C[C@@H](O)CN(CCc2ccccc2)C(=O)NC(C)C)cc1 | > 10000 nM |
| COc1ccc(S(=O)(=O)N(CC2CCCC2)C[C@@H](O)CN(CCc2ccccc2)C(=O)NC(C)(C)C)cc1 | 2100 nM |
| COc1ccc(S(=O)(=O)N(CC2CCCC2)C[C@@H](O)CN(CCc2ccccc2)C(=O)N[C@H]2c3ccccc3C[C@H]2O)cc1 | 43 nM |
| COc1ccc(S(=O)(=O)N(CC2CCCC2)C[C@@H](O)CN(CCc2ccccc2)C(=O)Nc2cccc(OC)c2)cc1 | > 10000 nM |
| COc1ccc(S(=O)(=O)N(CC2CCCC2)C[C@@H](O)CN(CCc2ccccc2)C(=O)NC2CCc3ccccc32)cc1 (some centres undefined) | > 10000 nM |
| COc1ccc(S(=O)(=O)N(CC2CCCC2)C[C@@H](O)CN(CCc2ccccc2)C(=O)NCc2ccccc2)cc1 | 22 nM |

These compounds were tested against T1, Human immunodeficiency virus type 1 protease (assay: Binding affinity to HIV-1 protease was determined).

| SMILES | Ki |
| --- | --- |
| COc1ccc(S(=O)(=O)N(CC2CCCC2)C[C@@H](O)CN(CCc2ccccc2)C(=O)Cc2ccccc2)cc1 | 20 nM |
| COc1ccc(S(=O)(=O)N(CC2CCCC2)C[C@@H](O)CN(CCc2ccccc2)C(=O)OCc2cncs2)cc1 | 38 nM |
| COc1ccc(S(=O)(=O)N(CC2CCCC2)C[C@@H](O)CN(Cc2ccccc2)C(=O)O[C@H]2CCOC2)cc1 | 600 nM |
| COc1ccc(S(=O)(=O)N(CC2CCCC2)C[C@@H](O)CN(CCc2ccccc2)C(=O)OC2CCCSC2)cc1 (some centres undefined) | 300 nM |
| COc1ccc(S(=O)(=O)N(CC2CCCC2)C[C@@H](O)CN(CCc2ccccc2)C(=O)OC2CCCS(=O)(=O)C2)cc1 (some centres undefined) | 1400 nM |
| COc1ccc(S(=O)(=O)N(CC2CCCC2)C[C@@H](O)CN(CCc2ccccc2)C(=O)Cc2cccc(O)c2C)cc1 | 66 nM |
| COc1ccc(S(=O)(=O)N(CC2CCCC2)C[C@@H](O)CN(CCc2ccccc2)C(=O)OC2COCOC2)cc1 | 15 nM |
| COc1ccc(S(=O)(=O)N(CC2CCCC2)C[C@@H](O)CN(CCc2ccccc2)C(=O)O[C@H]2CCOC2)cc1 | 40 nM |
| COc1ccc(S(=O)(=O)N(CC2CCCC2)C[C@@H](O)CN(CCc2ccccc2)C(=O)Oc2ccccc2)cc1 | 173 nM |
| COc1ccc(S(=O)(=O)N(CC2CCCC2)C[C@@H](O)CN(CCc2ccccc2)C(=O)OC2CCSC2)cc1 (some centres undefined) | 104 nM |
| COc1ccc(S(=O)(=O)N(CC2CCCC2)C[C@@H](O)CN(CCc2ccccc2)C(=O)OC2CCS(=O)(=O)C2)cc1 (some centres undefined) | 38 nM |
| COc1ccc(S(=O)(=O)N(CC2CCCC2)C[C@@H](O)CN(CCc2ccccc2)C(=O)Cc2cncc(NS(N)(=O)=O)c2)cc1 | 220 nM |
| COc1ccc(S(=O)(=O)N(CC2CCCC2)C[C@@H](O)CN(CCc2ccccc2)C(=O)OC(C)(C)C)cc1 | 125 nM |
| COc1ccc(S(=O)(=O)N(CC2CCCC2)C[C@@H](O)CN(CCc2ccccc2)C(=O)O[C@@H]2CO[C@H]3OCC[C@H]32)cc1 | 50 nM |
| COc1ccc(S(=O)(=O)N(CC2CCCC2)C[C@@H](O)CN(CCc2ccccc2)C(=O)OCc2cccnc2)cc1 | 17 nM |
| COc1ccc(S(=O)(=O)N(CC2CCCC2)C[C@@H](O)CN(CCc2ccccc2)C(=O)Cc2cccc(NS(N)(=O)=O)c2)cc1 | 29 nM |
| COc1ccc(S(=O)(=O)N(CC2CCCC2)C[C@@H](O)CN(CCc2ccccc2)C(=O)CC2CCCC(NS(N)(=O)=O)C2)cc1 (some centres undefined) | 76 nM |
| COc1ccc(S(=O)(=O)N(CC2CCCC2)C[C@@H](O)CN(CCc2ccccc2)C(=O)OCc2ccncc2)cc1 | 200 nM |
| COc1ccc(S(=O)(=O)N(CC2CCCC2)C[C@@H](O)CN(CCc2ccccc2)C(=O)Cc2cccc(NS(N)(=O)=O)c2C)cc1 | 680 nM |
| COc1ccc(S(=O)(=O)N(CC2CCCC2)C[C@@H](O)CN(CCc2ccccc2)C(=O)Cc2ccncc2NS(N)(=O)=O)cc1 | 27 nM |
| COc1ccc(S(=O)(=O)N(CC(O)CN(CCc2ccccc2)C(=O)N[C@H](C(=O)OCc2ccccc2)C(C)C)CC2CCCC2)cc1 (single isomer, unassigned) | 7 nM |
